# “And” between values parts separate entries of the source, which are not always exact repeats. Equal entries are not always repeated. “Also recorded” adds a separate entry of the source. Where two headings read alike, the source gives them in different places.
# Legend:
# [1] = test system: KB-8511, Taxol-resistant (Pgp-overexpression) KB cell line; test: 72 hour growth-inhibition (cytotoxicity) assay, KB-8511 cells
# Description: (§1) In addition, further cytotoxicity studies were carried out using a pair of drug-sensitive parental human epidermoid carcinoma cells (KB-31) and its Taxol™-resistant Pgp-overexpressing subline (KB-5811).
# [2] = test system: drug-sensitive and drug-resistant human cancer cell lines; test: Cytotoxicity assays across the panel of cell lines (summary in words); assay type: cell-based; conditions: summary of Tables 1A-1C
# [3] = test system: 1A9/PTX10, Taxol-resistant 1A9 cell line (β270 Phe→Val); test: 72 hour growth-inhibition (cytotoxicity) assay, 1A9/PTX10 cells; assay type: cell-based, human; conditions: for IC50: Homo sapiens, 1A9/ptx-10; for RRp (relative resistance), 1A9/PTX10: IC50 of 1A9/PTX10 divided by IC50 of the parental cell line 1A9; for RAEpoB (relative activity), 1A9/PTX10: ratio of IC50 of EpoB to IC50 of the tested compound in the concurrent assay
# [4] = test system: KB-31 human epidermoid cancer cell line; test: 72 hour growth-inhibition (cytotoxicity) assay, KB-31 cells; assay type: cell-based; conditions: for IC50: Homo sapiens
# [5] = test system: A2780/AD10, drug-resistant clone of human ovarian carcinoma A2780 overexpressing P-glycoprotein; test: 72 hour growth-inhibition (cytotoxicity) assay, A2780/AD10 cells; assay type: cell-based; conditions: for IC50: Homo sapiens, A2780, 72 hour growth inhibition, sulforhodamine-B staining, mean of 3-5 experiments ± SEM; for RRp (relative resistance), A2780/AD10: IC50 of A2780/AD10 divided by IC50 of the parental cell line; for potency enhancement over EpoB, A2780/AD10: PgP-overexpressing cell line
# [6] = test system: 1A9/A8, EpoA-resistant 1A9 cell line (β274 Thr→Ile); test: 72 hour growth-inhibition (cytotoxicity) assay, 1A9/A8 cells; assay type: cell-based, human; conditions: for IC50: Homo sapiens, 1A9; for RRp (relative resistance), 1A9/A8: IC50 of 1A9/A8 divided by IC50 of the parental cell line; for RAEpoB (relative activity), 1A9/A8: ratio of IC50 of EpoB to IC50 of the tested compound in the concurrent assay
# [7] = test system: 1A9 human ovarian cancer cell line; test: 72 hour growth-inhibition (cytotoxicity) assay, 1A9 cells; assay type: cell-based; conditions: for IC50: Homo sapiens, 1A9; for RAEpoB (relative activity), 1A9: ratio of IC50 of EpoB to IC50 of the tested compound in the concurrent assay
# [8] = test system: KB-8511, Taxol-resistant (Pgp-overexpression) KB cell line; conditions: human, 72 h
# Description: as §1
# [9] = read-out: KB-8511 IC50, 72 hour growth inhibition, methylene blue staining, mean of 3-5 experiments ± SEM
# [10] = 72 hour growth inhibition, sulforhodamine-B staining, mean of 3-5 experiments ± SEM, read-out: 1A9/PTX10 IC50
# [11] = KB 3-1, 72 h, read-out: KB-31 IC50
# [12] = 72 hour growth inhibition, sulforhodamine-B staining, mean of 3-5 experiments ± SEM, read-out: 1A9/A8 IC50
# [13] = 72 hour growth inhibition, sulforhodamine-B staining, mean of 3-5 independent experiments ± standard error of the mean, read-out: 1A9 IC50
# [14] = read-out: IC50, KB-5811 (Table 2), Table 2, tested epothilone, cell line KB-5811, unit from Table 1A note a
# [15] = Table 2, tested epothilone, unit from Table 1A note a, read-out: IC50, 1A9/PTX10 (Table 2)
# [16] = KB 3-1, read-out: IC50, KB-31 (Table 2)
# [17] = Table 2, tested epothilone, unit from Table 1A note a, read-out: IC50, 1A9/A8 (Table 2)
# [18] = Table 2, tested epothilone, unit from Table 1A note a, read-out: IC50, 1A9 (Table 2)
Structure (SMILES),"IC50 [1, 9]","cytotoxicity across the tested cell lines, in words [2]","IC50 [3, 10]","IC50 [4, 11]",IC50 [5],"IC50 [6, 12]","IC50 [7, 13]","RRp (relative resistance), A2780/AD10 [5]","RRp (relative resistance), 1A9/A8 [6]","RRp (relative resistance), 1A9/PTX10 [3]","IC50 [1, 14]","IC50 [3, 15]","RAEpoB (relative activity), 1A9/PTX10 [3]","IC50 [4, 16]","IC50 [6, 17]","RAEpoB (relative activity), 1A9/A8 [6]","IC50 [7, 18]","RAEpoB (relative activity), 1A9 [7]",further results
C/C(=C\C#N)[C@@H]1C[C@@H]2O[C@]2(C)CCC[C@H](C)[C@H](O)[C@@H](C)C(=O)C(C)(C)[C@@H](O)CC(=O)O1 [Compound 21],> 1000 nM,not found active; also recorded: devoid of any significant cytotoxicity against any of the cell lines tested,> 750 nM,346 ± 10.5 nM,> 150 nM,> 750 nM,> 750 nM,,,,,,,,,,,,
C/C(=C\c1nccn1C)[C@@H]1C[C@@H]2O[C@]2(C)CCC[C@H](C)[C@H](O)[C@@H](C)C(=O)C(C)(C)[C@@H](O)CC(=O)O1 [Compound 8],> 1000 nM,significantly lower activities,> 750 nM,69.9 ± 5.31 nM,760 nM,242 nM,95.5 ± 13.4 nM,1.4,2.5,,,,,,,,,,
C/C(=C\c1ncnn1C)[C@@H]1C[C@@H]2O[C@]2(C)CCC[C@H](C)[C@H](O)[C@@H](C)C(=O)C(C)(C)[C@@H](O)CC(=O)O1 [Compound 9],> 1000 nM,significantly lower activities,> 750 nM,382 ± 49.4 nM,> 750 nM,627 nM,540 nM,,1.2,,,,,,,,,,
CSCc1nc(/C=C(\C)[C@@H]2C[C@@H]3O[C@]3(C)CCC[C@H](C)[C@H](O)[C@@H](C)C(=O)C(C)(C)[C@@H](O)CC(=O)O2)cs1 [Compound 5],1.97 ± 0.25 nM,"less potent than EpoB, exhibited high potency against several of the tested cell lines",43.3 ± 12 nM,1.38 ± 0.05 nM,82.2 ± 49.6 nM,18.6 ± 11.3 nM,3.6 ± 1.4 nM,15.2,5.2,12.0,,,,,,,,,
CC(=O)SCc1nc(/C=C(\C)[C@@H]2C[C@@H]3O[C@]3(C)CCC[C@H](C)[C@H](O)[C@@H](C)C(=O)C(C)(C)[C@@H](O)CC(=O)O2)cs1 [Compound 6],8.39 ± 1.37 nM,"less potent than EpoB, exhibited high potency against several of the tested cell lines",28.2 ± 9.3 nM,1.18 ± 0.12 nM,8.6 ± 3.3 nM,49.8 ± 34.5 nM,5.4 ± 1.1 nM,45.3,9.2,5.2,,,,,,,,,
C/C(=C\c1ccn(C)n1)[C@@H]1C[C@@H]2O[C@]2(C)CCC[C@H](C)[C@H](O)[C@@H](C)C(=O)C(C)(C)[C@@H](O)CC(=O)O1 [Compound 14],0.25 ± 0.04 nM,more potent cytotoxicities than EpoB across the board,1.7 ± 1.1 nM,0.19 ± 0.01 nM,25.5 ± 15.1 nM,0.8 ± 0.3 nM,0.5 ± 0.3 nM,4.7,1.6,3.4,0.25 nM,1.7 nM,4.6,0.19 nM,0.8 nM,12.5,0.5 nM,2.0,"potency enhancement over EpoB, A2780/AD10 [5]: 20 fold"
C/C(=C\c1nc2ccccc2s1)[C@@H]1C[C@@H]2O[C@]2(C)CCC[C@H](C)[C@H](O)[C@@H](C)C(=O)C(C)(C)[C@@H](O)CC(=O)O1 [Compound 7],0.08 ± 0.04 nM,"excellent cytotoxicity across the range of cell lines, being more potent than EpoB",2.6 ± 2.5 nM,0.21 ± 0.07 nM,707 nM,0.7 ± 0.4 nM,0.19 ± 0.1 nM,7.4,3.7,13.7,0.08 nM,2.6 nM,3.0,0.21 nM,0.7 nM,14.3,0.19 nM,5.2,
CSc1cc(/C=C(\C)[C@@H]2C[C@@H]3O[C@]3(C)CCC[C@H](C)[C@H](O)[C@@H](C)C(=O)C(C)(C)[C@@H](O)CC(=O)O2)nn1C [Compound 16],0.14 ± 0.01 nM,the most potent of all compounds tested; also recorded: outperformed EpoB in all five cancer cell lines tested,0.1 nM,0.09 ± 0.01 nM,30.3 ± 17.7 nM,0.6 ± 0.5 nM,0.06 ± 0.04 nM,8.2,10.0,1.7,0.14 nM,0.1 nM,78.0,0.09 nM,0.6 nM,16.7,0.06 nM,16.5,"potency increase as compared to EpoB, 1A9/PTX10 ([3]; Taxol-resistant cell line): 78 fold and 78.0 fold; potency increase as compared to EpoB, KB cell lines ([4]; KB cell lines (KB-31 and KB-8511 together)): 3-5 fold; potency enhancement over EpoB, A2780/AD10 [5]: 4 fold; potency (activity) increase as compared to EpoB, 1A9/A8 ([6]; EpoA-resistant cell line): 17 fold and 16.7 fold; potency (activity) increase as compared to EpoB, 1A9 ([7]; 1A9 parental cell line): 17 fold and 16.5 fold"
"CSc1nc(/C=C(\C)[C@@H]2C[C@@H]3O[C@]3(C)CCC[C@H](C)[C@H](O)[C@@H](C)C(=O)C(C)(C)[C@@H](O)CC(=O)O2)cs1 [Compound 3, reference compound]",,,,,,,,,,,,0.26 nM,14.2,,1.3 nM,5.0,0.17 nM,1.8,"IC50 [8]: 0.07 nM; IC50 ([4]; KB 3-1, Table 2, tested epothilone, unit from Table 1A note a, read-out: IC50, KB-31 (Table 2)): 0.11 nM"
